Where two headings read alike, the source gives them in different places.
What was measured:
[1] = biological target: T1, Human UII receptor, 6D9 human rhabdomyosarcoma cells (Homo sapiens, UniProt Q9UKP6); assay: Human UII Calcium Mobilization Assay; assay type: cell-based; details: average value, FLIPR TETRA, read-out: Human UII Ca^+ Mobilization Average IC50
T1 construct: 6D9: isolated by dilution subcloning of RMS13 cells, ATCC® Number: CRL-2061; host or cells: 6D9 human rhabdomyosarcoma cells (subclone of RMS13)
T1 sequence (Q9UKP6 1-389): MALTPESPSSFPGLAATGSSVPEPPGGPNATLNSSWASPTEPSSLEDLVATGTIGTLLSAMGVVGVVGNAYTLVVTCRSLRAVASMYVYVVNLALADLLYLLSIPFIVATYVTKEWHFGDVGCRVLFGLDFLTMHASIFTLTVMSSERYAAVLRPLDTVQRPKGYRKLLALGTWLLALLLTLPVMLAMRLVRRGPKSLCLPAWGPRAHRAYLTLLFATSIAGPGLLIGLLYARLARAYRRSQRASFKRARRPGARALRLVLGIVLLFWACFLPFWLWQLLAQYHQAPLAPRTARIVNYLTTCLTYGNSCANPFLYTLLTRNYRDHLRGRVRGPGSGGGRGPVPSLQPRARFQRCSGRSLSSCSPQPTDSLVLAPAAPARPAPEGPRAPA
Procedure, shortened: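 FLIPR calcium responses were recorded for 4 minutes after room-temperature addition of test antagonist and U-II, in dye-loaded human 6D9 cells (37° C, 45 min; HBSS/HEPES with probenecid 1.25 mM). Compounds serially diluted in HBSS/HEPES, up to 0.1% DMSO; curves gave IC50 and EC50.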

[2] = biological target: T2, rat GPR14 (U-II receptor) (Rattus norvegicus, UniProt P49684); assay: Rat UII Calcium Mobilization FLIPR Assay; assay type: cell-based; details: average value for the compound tested; read-out: Rat UII FLIPR Average IC50
T2 construct: expressed in transfected cells
T2 sequence (P49684 1-386): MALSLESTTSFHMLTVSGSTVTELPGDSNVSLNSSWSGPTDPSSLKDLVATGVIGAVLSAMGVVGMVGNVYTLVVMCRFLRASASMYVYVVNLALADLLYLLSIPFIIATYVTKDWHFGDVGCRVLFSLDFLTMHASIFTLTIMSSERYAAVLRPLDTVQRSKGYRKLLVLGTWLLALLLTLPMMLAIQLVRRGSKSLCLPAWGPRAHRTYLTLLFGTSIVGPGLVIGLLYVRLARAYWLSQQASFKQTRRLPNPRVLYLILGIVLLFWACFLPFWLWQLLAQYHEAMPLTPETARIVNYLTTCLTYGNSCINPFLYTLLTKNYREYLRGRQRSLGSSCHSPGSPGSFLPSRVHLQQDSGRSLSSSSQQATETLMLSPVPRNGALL
Procedure, shortened: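 Fluorescent calcium signals were recorded at room temperature (23° C) by FLIPR. Stable rat U-II receptor CHO lines had been dye-loaded for 1 h at 37° C in pH 7.4 HBSS containing 20 mM HEPES, 0.1% BSA and 2.5 mM probenecid.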

[3] = biological target: T3, endogenous human UII receptor (Homo sapiens, UniProt Q9UKP6); assay: Human Radioligand Binding Assay ((^125I)-U-II binding to human skeletal muscle myoblasts)
T3 sequence (Q9UKP6 1-389): T1 sequence (Q9UKP6 1-389)

[4] = read-out: Human UII Average Binding Ki, average value, (^125I)-U-II binding to human skeletal muscle myoblasts (HSMM), 25° C., 3 h

| IC50 [1] [nM] | IC50 [2] [nM] | Ki [3] [nM] | Structure (SMILES) | Ki [3, 4] [nM] |
| --- | --- | --- | --- | --- |
| 1000 | 14 | 74 | COc1ccc([C@@H](CCCNC(=O)c2cccnc2)N2C(=O)c3cccc(N4CCN([C@H](C)c5ccccc5)CC4)c3C2=O)cc1OC [Cpd 151, (R)-N-(4-(3,4-dimethoxy-phenyl)-4-{1,3-dioxo-4-[4-(1R)-(1-phenyl-ethyl)-piperazin-1-yl]-1,3-dihydro-isoindol-2-yl}-butyl)-nicotinamide] |  |
| 660 | 17 | 69 | COc1ccc([C@@H](CCCNC(=O)c2cncn2C)N2C(=O)c3cccc(N4CCN([C@H](C)c5ccccc5)CC4)c3C2=O)cc1OC [Cpd 152, (R)-3-methyl-3H-imidazole-4-carboxylic acid (4-(3,4-dimethoxy-phenyl)-4-{1,3-dioxo-4-[4-(1R)-(1-phenyl-ethyl)-piperazin-1-yl]-1,3-dihydro-isoindol-2-yl}-butyl)-amide] |  |
| 1200 | 13 | 88 | COc1ccc([C@@H](CCCNC(=O)c2cn(C)cn2)N2C(=O)c3cccc(N4CCN([C@H](C)c5ccccc5)CC4)c3C2=O)cc1OC [Cpd 153, (R)-1-methyl-1H-imidazole-4-carboxylic acid (4-(3,4-dimethoxy-phenyl)-4-{1,3-dioxo-4-[4-(1R)-(1-phenyl-ethyl)-piperazin-1-yl]-1,3-dihydro-isoindol-2-yl}-butyl)-amide] |  |
| 1200 | 13 | 84 | COc1ccc([C@@H](CCCNC(=O)c2ccncc2)N2C(=O)c3cccc(N4CCN([C@H](C)c5ccccc5)CC4)c3C2=O)cc1OC [Cpd 154, (R)-N-(4-(3,4-dimethoxy-phenyl)-4-{1,3-dioxo-4-[4-(1R)-(1-phenyl-ethyl)-piperazin-1-yl]-1,3-dihydro-isoindol-2-yl}-butyl)-isonicotinamide] |  |
| 400 | 9.4 | 45 | COc1ccc([C@@H](CCCNC(=O)C2CCCO2)N2C(=O)c3cccc(N4CCN([C@H](C)c5ccccc5)CC4)c3C2=O)cc1OC (stereo partly drawn) [Cpd 155, (R)-tetrahydro-furan-2-carboxylic acid (4-(3,4-dimethoxy-phenyl)-4-{1,3-dioxo-4-[4-(1R)-(1-phenyl-ethyl)-piperazin-1-yl]-1,3-dihydro-isoindol-2-yl}-butyl)-amide] |  |
| 490 | 35 | 84 | COc1ccc([C@@H](CCCNC(=O)c2csc(C)n2)N2C(=O)c3cccc(N4CCN([C@H](C)c5ccccc5)CC4)c3C2=O)cc1OC [Cpd 156, (R)-2-methyl-thiazole-4-carboxylic acid (4-(3,4-dimethoxy-phenyl)-4-{1,3-dioxo-4-[4-(1R)-(1-phenyl-ethyl)-piperazin-1-yl]-1,3-dihydro-isoindol-2-yl}-butyl)-amide] |  |
| 680 | 32 | 260 | COc1ccc([C@@H](CCCNC(=O)c2ccc(S(C)(=O)=O)s2)N2C(=O)c3cccc(N4CCN([C@H](C)c5ccccc5)CC4)c3C2=O)cc1OC [Cpd 157, (R)-5-methanesulfonyl-thiophene-2-carboxylic acid (4-(3,4-dimethoxy-phenyl)-4-{1,3-dioxo-4-[4-(1R)-(1-phenyl-ethyl)-piperazin-1-yl]-1,3-dihydro-isoindol-2-yl}-butyl)-amide] |  |
| 330 | 16 | 99 | COc1ccc([C@@H](CCCNC(=O)c2conc2C)N2C(=O)c3cccc(N4CCN([C@H](C)c5ccccc5)CC4)c3C2=O)cc1OC [Cpd 158, (R)-3-methyl-isoxazole-4-carboxylic acid (4-(3,4-dimethoxy-phenyl)-4-{1,3-dioxo-4-[4-(1R)-(1-phenyl-ethyl)-piperazin-1-yl]-1,3-dihydro-isoindol-2-yl}-butyl)-amide] |  |
| 750 | 34 | 150 | COc1ccc([C@@H](CCCNC(=O)c2cc(C)on2)N2C(=O)c3cccc(N4CCN([C@H](C)c5ccccc5)CC4)c3C2=O)cc1OC [Cpd 159, (R)-5-methyl-isoxazole-3-carboxylic acid (4-(3,4-dimethoxy-phenyl)-4-{1,3-dioxo-4-[4-(1R)-(1-phenyl-ethyl)-piperazin-1-yl]-1,3-dihydro-isoindol-2-yl}-butyl)-amide] |  |
| 400 | 12 | 140 | COc1ccc([C@@H](CCCNC(=O)c2ccnnc2)N2C(=O)c3cccc(N4CCN([C@H](C)c5ccccc5)CC4)c3C2=O)cc1OC [Cpd 160, (R)-pyridazine-4-carboxylic acid (4-(3,4-dimethoxy-phenyl)-4-{1,3-dioxo-4-[4-(1R)-(1-phenyl-ethyl)-piperazin-1-yl]-1,3-dihydro-isoindol-2-yl}-butyl)-amide] |  |
| 630 | 19 | 120 | COc1ccc([C@@H](CCCNC(=O)c2nccn2C)N2C(=O)c3cccc(N4CCN([C@H](C)c5ccccc5)CC4)c3C2=O)cc1OC [Cpd 161, (R)-1-methyl-1H-imidazole-2-carboxylic acid (4-(3,4-dimethoxy-phenyl)-4-{1,3-dioxo-4-[4-(1R)-(1-phenyl-ethyl)-piperazin-1-yl]-1,3-dihydro-isoindol-2-yl}-butyl)-amide] |  |
| 430 | 35 | 170 | COc1ccc([C@@H](CCCNC(=O)c2cc(C)c(C)o2)N2C(=O)c3cccc(N4CCN([C@H](C)c5ccccc5)CC4)c3C2=O)cc1OC [Cpd 162, (R)-4,5-dimethyl-furan-2-carboxylic acid (4-(3,4-dimethoxy-phenyl)-4-{1,3-dioxo-4-[4-(1R)-(1-phenyl-ethyl)-piperazin-1-yl]-1,3-dihydro-isoindol-2-yl}-butyl)-amide] |  |
| 500 | 15 | 95 | COc1ccc([C@@H](CCCNC(=O)c2cscn2)N2C(=O)c3cccc(N4CCN([C@H](C)c5ccccc5)CC4)c3C2=O)cc1OC [Cpd 163, (R)-thiazole-4-carboxylic acid (4-(3,4-dimethoxy-phenyl)-4-{1,3-dioxo-4-[4-(1R)-(1-phenyl-ethyl)-piperazin-1-yl]-1,3-dihydro-isoindol-2-yl}-butyl)-amide] |  |
| 300 | 13 | 100 | COc1ccc([C@@H](CCCNC(=O)c2c(C)noc2C)N2C(=O)c3cccc(N4CCN([C@H](C)c5ccccc5)CC4)c3C2=O)cc1OC [Cpd 164, (R)-3,5-dimethyl-isoxazole-4-carboxylic acid (4-(3,4-dimethoxy-phenyl)-4-{1,3-dioxo-4-[4-(1R)-(1-phenyl-ethyl)-piperazin-1-yl]-1,3-dihydro-isoindol-2-yl}-butyl)-amide] |  |
| 1100 | 18 | 350 | COc1ccc([C@@H](CCCNC2=CCCN2)N2C(=O)c3cccc(N4CCN([C@H](C)c5ccccc5)CC4)c3C2=O)cc1OC [Cpd 165, (R)-2-[4-(4,5-dihydro-1H-pyrrol-2-ylamino)-1-(3,4-dimethoxy-phenyl)-butyl]-4-[4-(1R)-(1-phenyl-ethyl)-piperazin-1-yl]-isoindole-1,3-dione] |  |
| 2600 | 26 | 510 | COc1ccc([C@@H](CCCNC(C)=N)N2C(=O)c3cccc(N4CCN([C@H](C)c5ccccc5)CC4)c3C2=O)cc1OC [Cpd 166, (R)-N-(4-(3,4-dimethoxy-phenyl)-4-{1,3-dioxo-4-[4-(1R)-(1-phenyl-ethyl)-piperazin-1-yl]-1,3-dihydro-isoindol-2-yl}-butyl)-acetamidine] |  |

| Structure (SMILES) | IC50 [1] [nM] | IC50 [2] [nM] | Ki [3] [nM] | Ki [3, 4] [nM] |
| --- | --- | --- | --- | --- |
| COc1ccc([C@@H](CCCNS(=O)(=O)c2cccs2)N2C(=O)c3cccc(N4CCNCC4)c3C2=O)cc1OC [Cpd 167, (R)-thiophene-2-sulfonic acid [4-(3,4-dimethoxy-phenyl)-4-(1,3-dioxo-4-piperazin-1-yl-1,3-dihydro-isoindol-2-yl)-butyl]-amide] | 500 | 40 |  | 150 |
| CCN1CCN(c2cccc3c2C(=O)N([C@H](CCCNS(=O)(=O)c2cccs2)c2ccc(OC)c(OC)c2)C3=O)CC1 [Cpd 168, (R)-thiophene-2-sulfonic acid {4-(3,4-dimethoxy-phenyl)-4-[4-(4-ethyl-piperazin-1-yl)-1,3-dioxo-1,3-dihydro-isoindol-2-yl]-butyl}-amide] | 150 | 4.8 |  | 35 |
